Data as given in patent publication US20110039926A1 (priority 2008, published 2011).

Assays:
[1] = test system: patients with Major Depressive Disorders (MDD); assay: multi-center, randomised, double-blinded, placebo-controlled 10 weeks study of F2695 in Major Depressive Disorders; assay type: in vivo, human
From the text: This was a multi-center, randomised, double-blinded, placebo-controlled 10 weeks study, assessing the efficacy and safety of F2695 flexible safety adapted dose in the treatment of patients with Major Depressive Disorders (MDD).
This study enrolled 563 patients who met the DSM-IV criteria for major depression with depression severity at the inclusion time assessed by HAM-D 17 score >22.
Patients were randomised to receive placebo or a flexible safety adapted dose by increasing progressively the administered doses using slow release capsules containing 25 or 50 mg of active drug (281 patients for placebo and 282 patients for F2695).
Placebo as well as F2695 were administered once a day as slow release capsules.
Slow release capsules were constituted of a plurality of minigranules each containing an active minisphere comprising a sucrose core containing F2695 as well as PVP as a binding agent; each minigranule being coated with a film of ethyl cellulose as described in EP 939 626. Placebo was constituted of the same slow release capsules of minigranules containing minispheres constituted only of a sucrose core.
The doses were administered in a dose escalation regimen during 10 days for initial titration. […]
Safety of F2695 was assessed by analysing: • frequency and intensity of adverse events as classified in the ICH guidelines (any adverse change from the subject's baseline condition, i.e. any subjective signs and symptoms, or change in a concomitant disease present at the selection visit, either considered or not related to the treatment) • suicidal risk evaluated by the MINI version 0.5 (modified Mini International Neuropsychiatric Interview) Efficiency of F2695 was assessed by: • MADRS Total score: change from baseline MMRM analysis (Full analysis data set) • MADRS Total score: change from baseline MMRM analysis (Per Protocol data set) • Responders and remitted patients compared to placebo group at Day 70 (end of the treatment period) Results from Safety

norepinephrine uptake = target: T1, norepinephrine uptake (Rattus norvegicus, UniProt Q63380); settings: homogenate of rat hypothalamus; versus racemic milnacipran hydrochloride; cited from earlier work
T1 construct: from tissue; host or cells: rat hypothalamus homogenate

[2] = compared with other psychotropic products such as clomipramine and milnacipran; cited from earlier work
[3] = test system: patients suffering from psychiatric disorders (among them MDD); settings: several trials, patients with psychiatric disorders (among them MDD); cited from earlier work

T1 sequence (Q63380 1-617): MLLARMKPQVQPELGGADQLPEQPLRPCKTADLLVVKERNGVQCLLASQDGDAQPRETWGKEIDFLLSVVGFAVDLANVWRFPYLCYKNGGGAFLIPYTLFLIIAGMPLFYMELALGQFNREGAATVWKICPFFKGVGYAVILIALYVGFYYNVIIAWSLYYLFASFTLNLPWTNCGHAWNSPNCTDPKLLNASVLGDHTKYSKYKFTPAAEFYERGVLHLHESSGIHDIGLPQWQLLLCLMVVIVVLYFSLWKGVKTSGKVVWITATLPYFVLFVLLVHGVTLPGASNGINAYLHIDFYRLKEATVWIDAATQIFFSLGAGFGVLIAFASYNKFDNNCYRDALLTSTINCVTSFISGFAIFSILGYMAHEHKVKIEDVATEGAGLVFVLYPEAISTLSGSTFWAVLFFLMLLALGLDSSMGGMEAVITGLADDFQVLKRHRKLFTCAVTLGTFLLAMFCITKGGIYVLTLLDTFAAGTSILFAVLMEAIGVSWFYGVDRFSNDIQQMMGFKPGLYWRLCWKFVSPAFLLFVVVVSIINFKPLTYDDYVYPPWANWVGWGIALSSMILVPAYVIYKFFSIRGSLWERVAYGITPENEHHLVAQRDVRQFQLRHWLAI

Row | SMILES | patients presenting significant Suicidal Risk (%) ([1]; During the 6-weeks treatment and follow-up, versus 2.1% upon placebo) | patients presenting significant Suicidal Risk ([1]; During the 6-weeks treatment and follow-up, versus 6 patients upon placebo) [patient] | Suicidal Risk in patients suffering from depression ([1]; conclusion from the odds ratio obtained in a small population) | odds ratio (OR) of significant Suicidal Risk, F2695 versus placebo ([1]; logits method, confidence interval [0.0196, 1.3686]) | Insufficient response (withdrawn patients) ([1]; n = 282, number of patients) | Serious Adverse Event/Non Serious Adverse Event (withdrawn patients) ([1]; n = 282, number of patients) | Therapeutic Failure (withdrawn patients) ([1]; n = 282, number of patients) | Worsening of MDD (withdrawn patients) ([1]; n = 282, number of patients) | Significant Suicidal Risk (withdrawn patients) ([1]; n = 282, number of patients, suicidal risk evaluated by the MINI) | Insufficient response (withdrawn patients, %) ([1]; n = 282, percent of group) [%] | Serious Adverse Event/Non Serious Adverse Event (withdrawn patients, %) ([1]; n = 282, percent of group) [%] | Therapeutic Failure (withdrawn patients, %) ([1]; n = 282, percent of group) [%] | Worsening of MDD (withdrawn patients, %) ([1]; n = 282, percent of group) [%] | Significant Suicidal Risk (withdrawn patients, %) ([1]; n = 282, percent of group, suicidal risk evaluated by the MINI) [%] | efficiency in norepinephrine uptake relative to the racemate (norepinephrine uptake) | safety coefficient [2] | toxico-genomic profile [2] | odds ratio (OR) versus placebo, suicidal behaviour and ideation [3]
1 | CCN(CC)C(=O)[C@@]1(c2ccccc2)C[C@H]1CN.Cl [F2695, Z-(1S,2R)-2-(aminomethyl)-N,N-diethyl-1-phenyl cyclopropane carboxamide hydrochloride] | 0.4 | 1 | significantly reduced | 0.1637 | 16 | 26 | 22 | 11 | 1 | 5.7 | 9.2 | 7.8 | 3.9 | 0.4 | two | significantly better | superior | –
2 | CN(C)CCC[C@@]1(c2ccc(F)cc2)OCc2cc(C#N)ccc21 [escitalopram] | – | – | – | – | – | – | – | – | – | – | – | – | – | – | – | – | – | 1.57
